{
  "source": "patent US20240010659A1",
  "about": "“NEW THIADIAZOLOPYRIMIDONE DERIVATIVES” (Hoffmann-La Roche Inc., priority 2021, published 2024)",
  "data": [
    {"tested_on": "mutant HTT protein (mHTT)", "test": "Homogeneous Time Resolved Fluorescence (HTRF) assay for HTT lowering in GENEAe020-A cells", "assay_type": "cell-based", "conditions": "reduction of mHTT in Huntington patient human cells (GENEAe020-A cell line), 48 hours incubation, mean from three replicates", "protocol": "Homogeneous Time Resolved Fluorescence for HTT Lowering\nThe HTRF assay was adapted from Weiss et al. (Analytical Biochemistry Volume 395, Issue 1, 1 Dec. 2009, Pages 8-15 and Analytical Biochemistry Volume 410, 2011, Pages 304-306) to cells from GENEAe020-A cell line (https://hpscreg.eu/cell-line/GENEAe020-A).\nCompounds were tested for the effect of mutant HTT levels in Huntington patient human cells (GENEAe020-A cell line) using Homogeneous Time Resolved Fluorescence (HTRF) directed towards mutant HTT protein (mHTT). The GENEAe020-A cell line was derived by Genea Biocells from human blastocysts of HD donors. After assessing viability, cells were plated into 384 well collagen coated plates in growth media. Once cells adhered, media was removed and test compounds dissolved in DMSO were diluted with buffer solution and added to the adherent cells. Controls included experiments with no cells, DMSO with no compound, and Hsp90 inhibitor control. Cells were incubated with compounds and controls for 48 hours. Then, the cells were lysed and transferred to an assay plate containing HTRF labeled monoclonal antibodies developed by Paul Patterson (Ko et al., Brain Research Bulletin, Volume 56, Numbers 3 and 4, 2001, Pages 319-329) which recognize specific areas of the HTT protein. The terbium labeled “donor” antibody (2B7) binds to the N-terminus of the HTT protein and the Alexa488 labeled “acceptor” antibody (MW1) is specific for the polyglutamine region of the protein. Binding of the acceptor labeled antibody is more efficient for the extended polyglutamine repeats of mutant HTT protein which translates into a signal boost which enables the specific measurement of mutant HTT protein level. The HTRF donor and acceptor detection reagents were incubated with the cell lysate and the ratio between the signals of the two fluorophores is indicative of the relative quantities of mHTT.", "units": {"EC50": "nM"}, "values": [
      {"smiles": "Cc1cn2nc(-c3cc(=O)n4nc(N5CCNCC5)sc4n3)cc(C)c2n1", "note": "[Example 1, 7-(2,8-dimethylimidazo[1,2-b]pyridazin-6-yl)-2-piperazino-[1,3,4]thiadiazolo[3,2-a]pyrimidin-5-one]", "EC50": 821},
      {"smiles": "Cc1cn2nc(-c3cc(=O)n4nc(C5CCNCC5)sc4n3)cc(C)c2n1", "note": "[Example 2, 7-(2,8-dimethylimidazo[1,2-b]pyridazin-6-yl)-2-(4-piperidyl)-[1,3,4]thiadiazolo[3,2-a]pyrimidin-5-one]", "EC50": 196},
      {"smiles": "Cc1cn2cc(-c3cc(=O)n4nc(C5CCNCC5)sc4n3)cc(F)c2n1", "note": "[Example 3, 7-(8-fluoro-2-methyl-imidazo[1,2-a]pyridin-6-yl)-2-(4-piperidyl)-[1,3,4]thiadiazolo[3,2-a]pyrimidin-5-one]", "EC50": 7400},
      {"smiles": "Cc1cn2nc(-c3cc(=O)n4nc(N5C[C@@H](C)N[C@@H](C)C5)sc4n3)cc(C)c2n1", "note": "[Example 4, 7-(2,8-dimethylimidazo[1,2-b]pyridazin-6-yl)-2-[(3R,5S)-3,5-dimethylpiperazin-1-yl]-[1,3,4]thiadiazolo[3,2-a]pyrimidin-5-one]", "EC50": 2040},
      {"smiles": "Cc1cn2nc(-c3cc(=O)n4nc(N5CCNC6(CC6)C5)sc4n3)cc(C)c2n1", "note": "[Example 6, 2-(4,7-diazaspiro[2.5]octan-7-yl)-7-(2,8-dimethylimidazo[1,2-b]pyridazin-6-yl)-[1,3,4]thiadiazolo[3,2-a]pyrimidin-5-one]", "EC50": 5840},
      {"smiles": "Cc1cn2nc(-c3cc(=O)n4nc(C5CCNC6(CC6)C5)sc4n3)cc(C)c2n1", "note": "(stereo not drawn) [Example 7, 2-(4-azaspiro[2.5]octan-7-yl)-7-(2,8-dimethylimidazo[1,2-b]pyridazin-6-yl)-[1,3,4]thiadiazolo[3,2-a]pyrimidin-5-one]", "EC50": 302},
      {"smiles": "Cc1cn2nc(-c3cc(=O)n4nc(C5(F)CCNCC5)sc4n3)cc(C)c2n1", "note": "[Example 8, 7-(2,8-dimethylimidazo[1,2-b]pyridazin-6-yl)-2-(4-fluoro-4-piperidyl)-[1,3,4]thiadiazolo[3,2-a]pyrimidin-5-one]", "EC50": 315},
      {"smiles": "Cc1cn2nc(-c3cc(=O)n4nc(C5CCNCC5)sc4n3)cc(C(F)(F)F)c2n1", "note": "[Example 9, 7-[2-methyl-8-(trifluoromethyl)imidazo[1,2-b]pyridazin-6-yl]-2-(4-piperidyl)-[1,3,4]thiadiazolo[3,2-a]pyrimidin-5-one]", "EC50": 700},
      {"smiles": "Cc1cn2nc(-c3cc(=O)n4nc(C5CCNC5)sc4n3)cc(C)c2n1", "note": "(stereo not drawn) [Example 10, 7-(2,8-dimethylimidazo[1,2-b]pyridazin-6-yl)-2-pyrrolidin-3-yl-[1,3,4]thiadiazolo[3,2-a]pyrimidin-5-one]", "EC50": 5220}
    ]}
  ]
}
